This is an account of results in ChEMBL document CHEMBL4052668, “Synthesis and evaluation of symmetric acyclic nucleoside bisphosphonates as inhibitors of the Plasmodium falciparum, Plasmodium vivax and human 6-oxopurine phosphoribosyltransferases and the antimalarial activity of their prodrugs” (Bioorg Med Chem, 2017).

The nature of series [1]: Cytotoxicity against human A549 cells after 4 days by coulter counting method. It is filed as cell-based.
Series [2] relates to Plasmodium falciparum. The experiment in a line: Antimalarial activity against chloroquine/pyrimethamine-resistant Plasmodium falciparum W2 trophozoites assessed as reduction in [3H]-hypoxanthine incorporation preincubated for 96 hrs followed by [3H]-hypoxanthine addition at 48 hrs post start of experiment. It is filed as functional.
For series [3], the system named is Plasmodium falciparum. The experiment in a line: Antimalarial activity against Plasmodium falciparum D6 trophozoites assessed as reduction in [3H]-hypoxanthine incorporation preincubated for 96 hrs followed by [3H]-hypoxanthine addition at 48 hrs post start of experiment. The series is classed as functional.
A short description of series [4]: Stability of the compound in pH 7 solution. It is filed as physicochemical. The conditions noted are these: buffer.
Series [5] in a line: Inhibition of N-terminal hexa-histidine-tagged Plasmodium vivax HGPRT using PRib-PP as substrate in presence of guanine by Hanes plot analysis.
For series [6], the target named is T1, Hypoxanthine-guanine phosphoribosyltransferase (Homo sapiens, UniProt P00492).
T1 sequence (P00492 whole entry): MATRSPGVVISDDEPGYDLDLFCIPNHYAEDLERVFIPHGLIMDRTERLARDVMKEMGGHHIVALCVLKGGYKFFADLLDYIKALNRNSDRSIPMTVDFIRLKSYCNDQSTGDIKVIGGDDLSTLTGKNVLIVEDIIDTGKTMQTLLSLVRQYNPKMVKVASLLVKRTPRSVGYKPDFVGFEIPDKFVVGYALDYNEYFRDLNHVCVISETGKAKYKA
The experiment in a line: Inhibition of N-terminal hexa-histidine-tagged human HGPRT using PRib-PP as substrate in presence of guanine by Hanes plot analysis.

Series [7] in a line: Inhibition of Plasmodium falciparum HGXPRT using PRib-PP as substrate in presence of guanine by Hanes plot analysis.
For series [8], the system named is Plasmodium falciparum. The experiment in a line: Inhibition of Plasmodium falciparum HGXPRT at 31 uM using PRib-PP as substrate in presence of guanine by spectrophotometric method.
The subject of series [9] is Plasmodium vivax. The experiment in a line: Inhibition of N-terminal hexa-histidine-tagged Plasmodium vivax HGPRT at 31 uM using PRib-PP as substrate in presence of guanine by spectrophotometric method.
The test system of series [10] is Plasmodium falciparum. The experiment in a line: Inhibition of Plasmodium falciparum HGXPRT at 32 uM using PRib-PP as substrate in presence of guanine by spectrophotometric method.
Series [11] deals with Plasmodium falciparum. Nature of the series: Inhibition of Plasmodium falciparum HGXPRT at 29 uM using PRib-PP as substrate in presence of guanine by spectrophotometric method.
Series [12] has as its system Plasmodium vivax. Nature of the series: Inhibition of N-terminal hexa-histidine-tagged Plasmodium vivax HGPRT at 29 uM using PRib-PP as substrate in presence of guanine by spectrophotometric method.
Series [13] relates to Plasmodium falciparum. The experiment in a line: Inhibition of Plasmodium falciparum HGXPRT at 46 uM using PRib-PP as substrate in presence of guanine by spectrophotometric method.
Series [14] concerns Plasmodium falciparum. Nature of the series: Inhibition of Plasmodium falciparum HGXPRT at 35 uM using PRib-PP as substrate in presence of guanine by spectrophotometric method.
In series [15] the target is T2, Hypoxanthine-guanine phosphoribosyltransferase (Homo sapiens) (UniProt P00492).
T2 sequence (whole entry): T1 sequence (P00492 whole entry)
Nature of the series: Inhibition of N-terminal hexa-histidine-tagged human HGPRT at 35 uM using PRib-PP as substrate in presence of guanine by spectrophotometric analysis.

Series [16] concerns Plasmodium vivax. The experiment in a line: Inhibition of N-terminal hexa-histidine-tagged Plasmodium vivax HGPRT at 35 uM using PRib-PP as substrate in presence of guanine by spectrophotometric method.
The subject of series [17] is Plasmodium vivax. The experiment in a line: Inhibition of N-terminal hexa-histidine-tagged Plasmodium vivax HGPRT at 42 uM using PRib-PP as substrate in presence of guanine by spectrophotometric method.
The subject of series [18] is Plasmodium falciparum. Nature of the series: Inhibition of Plasmodium falciparum HGXPRT at 42 uM using PRib-PP as substrate in presence of guanine by spectrophotometric method.
Series [19] addresses T2, Hypoxanthine-guanine phosphoribosyltransferase (Homo sapiens). Nature of the series: Inhibition of N-terminal hexa-histidine-tagged human HGPRT at 42 uM using PRib-PP as substrate in presence of guanine by spectrophotometric analysis.

Activity calls are given as the source filed them. No cut-off for these calls is given here.

One may read the CC50 as the concentration at which the toxic effect on the cells reaches its halfway point. A higher CC50 goes with better tolerance by the cells. The term IC50 denotes the concentration at which inhibition is half-maximal. Turning to `CCOC(=O)[C@H](Cc1ccccc1)NP(=O)(CCOCC(COCCP(=O)(N[C@@H](Cc1ccccc1)C(=O)OCC)N[C@@H](Cc1ccccc1)C(=O)OCC)n1cnc2c(=O)[nH]c(N)nc21)N[C@@H](Cc1ccccc1)C(=O)OCC`, in series [1], the CC50 at 96 h was greater than 300 µM. For the same molecule, the IC50 with Plasmodium falciparum [2] stood at 9.4 µM; with Plasmodium falciparum [3] it was 10 µM. In series [4], the Stability entry is “Stable”.
In series [1], `CCOC(=O)[C@H](Cc1ccccc1)NP(=O)(CCOCC(COCCP(=O)(N[C@@H](Cc1ccccc1)C(=O)OCC)N[C@@H](Cc1ccccc1)C(=O)OCC)Cn1ccc2c(=O)[nH]cnc21)N[C@@H](Cc1ccccc1)C(=O)OCC` registered a CC50 at 96 h of 23 µM. The Stability result in series [4] was “Stable”.
For orientation: Ki means a dissociation constant, usually derived from enzyme kinetics or from competition with a known ligand. Regarding `Nc1nc2c(ccn2C(COCCP(=O)(O)O)COCCP(=O)(O)O)c(=O)[nH]1`, the Ki in series [5] was determined as 49 µM; in [6], 5 µM; in series [7], 6 µM.
Molecule `CCOC(=O)[C@H](Cc1ccccc1)NP(=O)(CCOCC(COCCP(=O)(N[C@@H](Cc1ccccc1)C(=O)OCC)N[C@@H](Cc1ccccc1)C(=O)OCC)n1ccc2c(=O)[nH]cnc21)N[C@@H](Cc1ccccc1)C(=O)OCC` registered a CC50 at 96 h in [1] of 130 µM. In addition, the Stability entry in series [4] is “Stable”.
Take `O=c1[nH]cnc2c1ccn2CC(COCCP(=O)(O)O)COCCP(=O)(O)O`: the inhibition result in the series on Plasmodium falciparum [8] and with Plasmodium vivax [9] was “inactive” throughout. In addition, the Ki in series [6] was 17 µM.
As to `Nc1nc2c(nc(Br)n2CC(COCCP(=O)(O)O)COCCP(=O)(O)O)c(=O)[nH]1`, the Ki in series [5] was 1.6 µM; in [6] it was 0.25 µM. The inhibition entry with Plasmodium falciparum [10] was “inactive”.
In the case of `CCOC(=O)[C@H](Cc1ccccc1)NP(=O)(CCOCC(COCCP(=O)(N[C@@H](Cc1ccccc1)C(=O)OCC)N[C@@H](Cc1ccccc1)C(=O)OCC)n1cnc2c(=O)[nH]cnc21)N[C@@H](Cc1ccccc1)C(=O)OCC`, in [1], the CC50 at 96 h was greater than 300 µM. Moreover, the IC50 in the series on Plasmodium falciparum [2] amounted to 1.7 µM; with Plasmodium falciparum [3] it was 1.5 µM. The Stability entry in series [4] is “Stable”.
As for `O=c1[nH]cnc2c1ncn2C(COCCP(=O)(O)O)COCCP(=O)(O)O`, the Ki in [5] came to 21 µM; in series [6] it was 3 µM; in series [7], 0.7 µM.
`CCOC(=O)[C@H](Cc1ccccc1)NP(=O)(CCOCC(COCCP(=O)(N[C@@H](Cc1ccccc1)C(=O)OCC)N[C@@H](Cc1ccccc1)C(=O)OCC)n1c(Br)nc2c(=O)[nH]c(N)nc21)N[C@@H](Cc1ccccc1)C(=O)OCC`: the values for the IC50 with Plasmodium falciparum [2] and in the series on Plasmodium falciparum [3] were 7 µM and 4.4 µM, respectively.
Molecule `CCOC(=O)[C@H](Cc1ccccc1)NP(=O)(CCOCC(COCCP(=O)(N[C@@H](Cc1ccccc1)C(=O)OCC)N[C@@H](Cc1ccccc1)C(=O)OCC)n1ccc2c(=O)[nH]c(N)nc21)N[C@@H](Cc1ccccc1)C(=O)OCC` yielded a CC50 at 96 h in series [1] greater than 300 µM. For the same molecule, the IC50 in the series on Plasmodium falciparum [2] was 1.1 µM; in the series with Plasmodium falciparum [3], 0.8 µM. Further, the Stability result in series [4] was “Stable”.
In the same order, the values of `CCOC(=O)[C@H](Cc1ccccc1)NP(=O)(CCOCC(COCCP(=O)(N[C@@H](Cc1ccccc1)C(=O)OCC)N[C@@H](Cc1ccccc1)C(=O)OCC)Cn1cnc2c(=O)[nH]cnc21)N[C@@H](Cc1ccccc1)C(=O)OCC` are 66 µM, 4.6 µM, 1.7 µM and “Stable”.
As to `Nc1nc2c(ncn2CC(COCCP(=O)(O)O)COCCP(=O)(O)O)c(=O)[nH]1`, the Ki is 0.16 µM in series [5] and 0.1 µM in [6].
Take `O=c1[nH]cnc2c1nc(Br)n2CC(COCCP(=O)(O)O)COCCP(=O)(O)O`: the inhibition entry in the series with Plasmodium falciparum [11] and in the series with Plasmodium vivax [12] was “inactive” in each case. Moreover, in series [6], the inhibition constant Ki is 9.7 µM.
As for `Nc1nc2c(nc(Br)n2C(COCCP(=O)(O)O)COCCP(=O)(O)O)c(=O)[nH]1`, the Ki stood at 153 µM in series [5], 19 µM in [6] and 4 µM in series [7].
On to `CCOC(=O)[C@H](Cc1ccccc1)NP(=O)(CCOCC(COCCP(=O)(N[C@@H](Cc1ccccc1)C(=O)OCC)N[C@@H](Cc1ccccc1)C(=O)OCC)n1c(Br)nc2c(=O)[nH]cnc21)N[C@@H](Cc1ccccc1)C(=O)OCC`, for which, in series [1], the CC50 at 96 h was 278 µM.
As for `CCOC(=O)[C@H](Cc1ccccc1)NP(=O)(CCOCC(COCCP(=O)(N[C@@H](Cc1ccccc1)C(=O)OCC)N[C@@H](Cc1ccccc1)C(=O)OCC)Cn1ccc2c(=O)[nH]c(N)nc21)N[C@@H](Cc1ccccc1)C(=O)OCC`, the CC50 at 96 h in series [1] was found to be 95 µM. Also, the figures for the IC50 in the series on Plasmodium falciparum [2] and in the series with Plasmodium falciparum [3] were 2.1 µM and 0.8 µM, respectively. The Stability result in series [4] was “Stable”.
Consider `CCOC(=O)[C@H](Cc1ccccc1)NP(=O)(CCOCC(COCCP(=O)(N[C@@H](Cc1ccccc1)C(=O)OCC)N[C@@H](Cc1ccccc1)C(=O)OCC)Cn1c(Br)nc2c(=O)[nH]cnc21)N[C@@H](Cc1ccccc1)C(=O)OCC`, for which, in [1], the CC50 at 96 h amounted to 43 µM.
As for `Nc1nc2c(ncn2C(COCCP(=O)(O)O)COCCP(=O)(O)O)c(=O)[nH]1`, the figures for the Ki in series [5], in series [6] and in series [7] were 21 µM, 0.3 µM and 0.2 µM, respectively.
As to `O=c1[nH]cnc2c1ncn2CC(COCCP(=O)(O)O)COCCP(=O)(O)O`, the values for the Ki in series [5] and in [6] were 6 µM and 1.5 µM, respectively. For the same molecule, the inhibition entry in the series with Plasmodium falciparum [13] was “inactive”.
Take `O=c1[nH]cnc2c1nc(Br)n2C(COCCP(=O)(O)O)COCCP(=O)(O)O`: the inhibition entry (in the series on Plasmodium falciparum [14]; in series [15]; in the series on Plasmodium vivax [16]) was “inactive” in each case.
In the case of `CCOC(=O)[C@H](Cc1ccccc1)NP(=O)(CCOCC(COCCP(=O)(N[C@@H](Cc1ccccc1)C(=O)OCC)N[C@@H](Cc1ccccc1)C(=O)OCC)Cn1cnc2c(=O)[nH]c(N)nc21)N[C@@H](Cc1ccccc1)C(=O)OCC`, the half-maximal cytotoxic concentration (CC50) at 96 h in series [1] is greater than 300 µM. For the same molecule, the figures for the IC50 with Plasmodium falciparum [2] and in the series on Plasmodium falciparum [3] were 6.9 µM and 5.1 µM, respectively. Besides, the Stability entry in series [4] is listed as “Stable”.
For `CCOC(=O)[C@H](Cc1ccccc1)NP(=O)(CCOCC(COCCP(=O)(N[C@@H](Cc1ccccc1)C(=O)OCC)N[C@@H](Cc1ccccc1)C(=O)OCC)Cn1c(Br)nc2c(=O)[nH]c(N)nc21)N[C@@H](Cc1ccccc1)C(=O)OCC`, the midpoint of cytotoxicity in series [1], the CC50 at 96 h, lay at 94 µM. The IC50 worked out at 21.3 µM in the series with Plasmodium falciparum [2] and 22.1 µM with Plasmodium falciparum [3].
Turning to `Nc1nc2c(nc(Br)n2CC(COCP(=O)(O)O)COCP(=O)(O)O)c(=O)[nH]1`, the Ki was determined as 89 µM in series [5], 4 µM in [6] and 1 µM in series [7].
In the case of `Nc1nc2c(ccn2CC(COCCP(=O)(O)O)COCCP(=O)(O)O)c(=O)[nH]1`, the results for the inhibition constant Ki in series [5] and in series [6] were 1.5 µM and 1 µM, respectively.
With `O=c1[nH]cnc2c1ccn2C(COCCP(=O)(O)O)COCCP(=O)(O)O`, the inhibition entry (with Plasmodium vivax [17]; in the series with Plasmodium falciparum [18]; in series [19]) was “inactive” each time.
